From the NIST ThermoML archive (doi:10.1021/je050366x)
± gives the expanded uncertainty stated by the source.

Test: xn = mol fraction of the nth substance listed
Conditions: for surface tension liquid-gas: Ring tensiometer; for mass density: 100 kPa, Liquid

O=C(O)C(=O)O [ethanedioic acid] + O
x1 = 0.00716
Conditions	surface tension liquid-gas [mN/m]
280.2 K	73.7 ± 1.2
280.5 K	73.7 ± 1.2
281.1 K	73.8 ± 1.2
281.2 K	73.7 ± 1.2
283.9 K	73.3 ± 1.2
284.5 K	73.2 ± 1.2
285.1 K	73.2 ± 1.2
285.7 K	73 ± 1.2
288.2 K	72.7 ± 1.2
288.7 K	72.4 ± 1.2
289.7 K	72.6 ± 1.2
290.1 K	72.4 ± 1.2
292.2 K	72 ± 1.2
293 K	71.9 ± 1.2
293.7 K	71.9 ± 1.2
294.3 K	71.7 ± 1.2
296.2 K	71.3 ± 1.2
297.5 K	71.2 ± 1.2
298 K	71.2 ± 1.2
298.5 K	71.1 ± 1.2
301.2 K	70.4 ± 1.2
302.1 K	70.6 ± 1.2
302.8 K	70.3 ± 1.2
304.7 K	70 ± 1.2

298 K, Pycnometric method
Conditions	mass density [kg/m3]
x1 = 0.002	996 ± 1
x1 = 0.003	1001 ± 1
x1 = 0.005	1008 ± 1
x1 = 0.007	1012 ± 1
x1 = 0.008	1016 ± 1
x1 = 0.01	1019 ± 1
x1 = 0.012	1026 ± 1
x1 = 0.013	1030 ± 1
x1 = 0.015	1034 ± 1

O=C(O)CC(O)C(=O)O (stereo not given) [hydroxybutanedioic acid] + O
Conditions	mass density [kg/m3]	surface tension liquid-gas [mN/m]
279.3 K, x1 = 0.06	–	71
280.5 K, x1 = 0.06	–	70.8
281.3 K, x1 = 0.06	–	70.6
281.7 K, x1 = 0.06	–	70.6
283.6 K, x1 = 0.06	–	70.3
283.7 K, x1 = 0.06	–	70.1
284.6 K, x1 = 0.06	–	70.3
285 K, x1 = 0.06	–	70.2
288.3 K, x1 = 0.06	–	69.7
288.5 K, x1 = 0.06	–	69.5
289.2 K, x1 = 0.06	–	69.7
289.3 K, x1 = 0.06	–	69.5
292.7 K, x1 = 0.06	–	68.7
293.2 K, x1 = 0.06	–	68.7
293.4 K, x1 = 0.06	–	69.1
293.7 K, x1 = 0.06	–	68
297.1 K, x1 = 0.06	–	68.2
297.2 K, x1 = 0.06	–	67.9
297.6 K, x1 = 0.06	–	68.4
297.7 K, x1 = 0.06	–	68
298 K, x1 = 0.003	1006 ± 2	70.3 ± 1.2
298 K, x1 = 0.007	–	70.1 ± 1.2
298 K, x1 = 0.015	1037 ± 2	69.8 ± 1.1
298 K, x1 = 0.023	1051 ± 2	69.3 ± 1.1
298 K, x1 = 0.032	1079 ± 2	69.3 ± 1.1
298 K, x1 = 0.043	–	68.4 ± 1.1
298 K, x1 = 0.054	1115 ± 2	68.4 ± 1.1
298 K, x1 = 0.058	–	68.1 ± 1.1
298 K, x1 = 0.07	–	67.8 ± 1.1
298 K, x1 = 0.075	1146 ± 2	–
298 K, x1 = 0.082	–	67.3 ± 1.1
298 K, x1 = 0.087	–	66.8 ± 1.1
298 K, x1 = 0.096	1182 ± 2	–
298.2 K, x1 = 0.06	–	67.8
301.9 K, x1 = 0.06	–	67.5
302.1 K, x1 = 0.06	–	68.1
302.3 K, x1 = 0.06	–	67.9

O=C(O)CC(=O)O [propanedioic acid] + O
Conditions	surface tension liquid-gas [mN/m]
278.1 K, x1 = 0.06	66.5 ± 1.1
279.3 K, x1 = 0.06	66 ± 1.1
279.7 K, x1 = 0.06	65.9 ± 1.1
282.6 K, x1 = 0.06	66 ± 1.1
285 K, x1 = 0.06	65.7 ± 1.1
286.5 K, x1 = 0.06	65.6 ± 1.1
287.8 K, x1 = 0.06	65.4 ± 1.1
288.7 K, x1 = 0.06	65.2 ± 1.1
289.6 K, x1 = 0.06	65.3 ± 1.1
290.9 K, x1 = 0.06	64.6 ± 1.1
291.1 K, x1 = 0.06	65 ± 1.1
293 K, x1 = 0.06	64.6 ± 1.1
295.3 K, x1 = 0.06	64.7 ± 1.1
296.7 K, x1 = 0.06	64.1 ± 1.1
297.1 K, x1 = 0.06	64.1 ± 1.1
298 K, x1 = 0.01	69.2 ± 1.1
298 K, x1 = 0.017	68.5 ± 1.1
298 K, x1 = 0.025	66.7 ± 1.1
298 K, x1 = 0.033	66.7 ± 1.1
298 K, x1 = 0.04	65.6 ± 1.1
298 K, x1 = 0.05	65.6 ± 1.1
298 K, x1 = 0.055	65.5 ± 1.1
298 K, x1 = 0.065	65 ± 1.1
298 K, x1 = 0.07	64.2 ± 1.1
298 K, x1 = 0.08	63.5 ± 1.1
298 K, x1 = 0.088	64.2 ± 1.1
298 K, x1 = 0.094	63.5 ± 1.1
298 K, x1 = 0.107	62.7 ± 1
298 K, x1 = 0.122	62.3 ± 1
298 K, x1 = 0.137	62.2 ± 1
298 K, x1 = 0.149	62.6 ± 1
298 K, x1 = 0.158	62.2 ± 1
298.2 K, x1 = 0.06	63.8 ± 1.1
299 K, x1 = 0.06	63.6 ± 1.1
299.1 K, x1 = 0.06	63.9 ± 1.1
301.2 K, x1 = 0.06	64 ± 1.1
303.3 K, x1 = 0.06	63 ± 1.1

298 K, Pycnometric method
Conditions	mass density [kg/m3]
x1 = 0.009	1016 ± 1
x1 = 0.03	1054 ± 1
x1 = 0.041	1068 ± 1
x1 = 0.055	1090 ± 1
x1 = 0.069	1108 ± 1
x1 = 0.085	1129 ± 1
x1 = 0.102	1152 ± 1
x1 = 0.147	1196 ± 1
